# Source: PubChem BioAssay (NCI)
#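 Values below derive from 48-hour exposures of cells grown in 96-well plates, with endpoints linearly interpolated between the two concentrations bracketing the appropriate inhibition level. TGI marks complete inhibition of growth.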 Where a SMILES comes first, the peptide text is derived from it. The star is where a group is joined. Cbz = O=C(OCc1ccccc1)*; Boc = CC(C)(C)OC(=O)*; OSu = O=C1CCC(=O)N1O*; Bn = c1ccc(C*)cc1
# Tests used:
# Assay in all cases: NCI-60 cell line screen, 48 h
# [1] = system: EKVX NSCLC
# [2] = system: NCI-H226 lung
# [3] = system: 786-0 renal
# [4] = system: SF-268 CNS
# [5] = system: MDA-N
# [6] = system: SNB-75 CNS
# [7] = system: U251 CNS
# [8] = system: A549 NSCLC
# [9] = system: SK-MEL-28 melanoma
# [10] = system: CAKI-1 renal
SMILES,TGI [1] [µM],TGI [2] [µM],TGI [3] [µM],TGI [4] [µM],TGI [5] [µM],TGI [6] [µM],TGI [7] [µM],TGI [8] [µM],TGI [9] [µM],TGI [10] [µM]
O=C(O)C1(C(O)c2ccccc2)SCCCS1 (stereo unspecified),> 10,> 10,> 10,> 10,> 10,> 10,> 10,> 10,> 10,
O=c1c2cc(I)ccc2nc(-c2cccs2)n1O,> 100,> 100,> 100,> 100,> 100,,> 100,61.2,> 100,98.4
Cc1ncc(CSC(=N)N)n1Cc1ccccc1,> 100,> 100,> 100,> 100,> 100,,> 100,> 100,> 100,> 100
C#CCOC(=O)C(=[N+]=[N-])C(=O)CC(C)C,> 10,> 10,> 10,> 10,> 10,,> 10,> 10,> 10,> 10
CC1CCCN1CCCOC(=O)c1ccc(OC2C=CCCC2)cc1 (stereo unspecified),> 100,86.4,40.4,> 100,> 100,34.6,> 100,> 100,> 100,
COc1ccc(/C=N/NC(=S)Nc2cc(C)ccc2OC)cc1,59.5,,70.9,> 100,70.7,> 100,,> 100,> 100,> 100
CC(C)(C)OC(=O)NC(Cc1ccc(OCc2ccccc2)cc1)C(=O)NC(CCCCNC(=O)OCc1ccccc1)C(=O)NC(CCCCNC(=O)OCc1ccccc1)C(=O)ON1C(=O)CCC1=O (stereo unspecified) (Boc-Tyr(Bn)-Lys(Cbz)-Lys(Cbz)-OSu; configuration not given here),> 100,,37.1,> 100,45.4,> 100,31.8,> 100,> 100,> 100
Cc1nc(Cc2n[nH]c(C)n2)n[nH]1,> 100,,> 100,> 100,> 100,> 100,> 100,> 100,,
COc1cc2c(cc1OC)C(=O)/C(=C/c1ccc(N(C)C)cc1)CC2,> 10,> 10,> 10,> 10,> 10,,> 10,> 10,> 10,> 10
CC(C)[C@@H]1NC(=O)[C@@H]2N=C(O[C@H]2C)[C@H](C(C)C)NC(=O)C2N=C1O[C@H]2C,> 100,> 100,> 100,> 100,> 100,> 100,,> 100,> 100,> 100
COc1cccc(CCCNC(=O)Cc2ccccc2CO)c1,> 100,> 100,> 100,,> 100,> 100,> 100,> 100,> 100,> 100
CC(C)(CN1CCCCC1)C(=O)CC(SCCS(=O)(=O)O)c1ccc(Cl)cc1 (stereo unspecified),11.8,27.9,8.91,,9.57,15.1,22.3,23.5,,18.3
C=CCNC1=C2C[C@@H](C)C[C@@H](OC)[C@H](OC(=O)CCN(C)C)[C@H](C)/C=C(\C)[C@@H](OC(N)=O)[C@H](OC)/C=C\C=C(/C)C(=O)NC(=CC1=O)C2=O,22.9,,21.2,29.4,14.3,0.741,21.1,17.4,21.9,45
CC(=O)C(C(C)=O)[C@H]1OC(C)(C)O[C@H]1[C@H]1COC(C)(C)O1,> 100,,> 100,> 100,> 100,> 100,79.9,> 100,> 100,> 100
COc1cccc(N=NN2CCCC2)c1,> 100,> 100,> 100,> 100,> 100,> 100,> 100,,,> 100
CC(=O)N[C@@H](Cc1ccc(O)cn1)C(=O)NC1CCCCC1,> 100,> 100,> 100,> 100,> 100,,> 100,> 100,> 100,> 100
CCOC(=O)C1C(c2ccc(OC)cc2)c2c([nH]n(-c3ccccc3)c2=O)CC1(C)O (stereo unspecified),> 100,,> 100,> 100,> 100,> 100,> 100,> 100,> 100,> 100
C[n+]1c(-c2ccc(/C=N/NC(=O)C(=O)N/N=C/c3ccc(-c4cn5ccccc5[n+]4C)cc3)cc2)cn2ccccc21,> 100,> 100,> 100,,> 100,> 100,> 100,> 100,,> 100
